Data from patent US10588317B2, “Isoxazoline-substituted benzamides and analogues as insecticides” (priority 2015, dated 2020).

Key:
Type in all cases: in vivo
[1] = system: Tetranychus urticae; experiment: Tetranychus urticae (two-spotted spider mite): feeding/contact activity; details: 192 h, application rate 200 ppm, mixed population (mobile stages), 8 days after infestation, read-out: mortality
Experimental: Bean leaf discs on agar in 24-well microtiter plates were sprayed with aqueous test solutions prepared from 10'000 ppm DMSO stock solutions. After drying the leaf discs were infested with a mite population of mixed ages. The samples were assessed for mortality on mixed population (mobile stages) 8 days after infestation.

[2] = system: Diabrotica balteata; experiment: Diabrotica balteata (corn root worm), sprayed maize sprouts; details: 96 h, application rate 200 ppm, L2 larvae, 4 days after infestation, read-out: effect in at least one of the two categories (mortality or growth inhibition)
Experimental: Maize sprouts placed onto an agar layer in 24-well microtiter plates were treated with aqueous test solutions prepared from 10'000 ppm DMSO stock solutions by spraying. After drying, the plates were infested with L2 larvae (6 to 10 per well). The samples were assessed for mortality and growth inhibition in comparison to untreated samples 4 days after infestation.
(§1) The following compounds gave an effect of at least 80% in at least one of the two categories (mortality or growth inhibition) at an application rate of 200 ppm: […]

[3] = system: Plutella xylostella; experiment: Plutella xylostella (diamond back moth), artificial diet; details: 120 h, application rate 200 ppm, L2 larvae, 5 days after infestation, read-out: effect in at least one of the two categories (mortality or growth inhibition)
Experimental: 24-well microtiter plates with artificial diet were treated with aqueous test solutions prepared from 10'000 ppm DMSO stock solutions by pipetting. After drying, the plates were infested with L2 larvae (10 to 15 per well). The samples were assessed for mortality and growth inhibition in comparison to untreated samples 5 days after infestation.
as §1

[4] = system: Spodoptera littoralis; experiment: Spodoptera littoralis (Egyptian cotton leaf worm), sprayed cotton leaf discs; details: foliar, 72 h, application rate 200 ppm, L1 larvae, 3 days after infestation, read-out: control (mortality, anti-feeding effect, growth inhibition)
Experimental: Cotton leaf discs were placed onto agar in 24-well microtiter plates and sprayed with aqueous test solutions prepared from 10'000 ppm DMSO stock solutions. After drying the leaf discs were infested with five L1 larvae. The samples were assessed for mortality, anti-feeding effect, and growth inhibition in comparison to untreated samples 3 days after infestation. Control of Spodoptera littoralis by a test sample is given when at least one of the categories mortality, anti-feedant effect, and growth inhibition is higher than the untreated sample.

[5] = system: Thrips tabaci; experiment: Thrips tabaci (onion thrips): feeding/contact activity; details: 144 h, application rate 200 ppm, Thrips population of mixed ages, 6 days after infestation, read-out: mortality
Experimental: Sunflower leaf discs were placed on agar in 24-well microtiter plates and sprayed with aqueous test solutions prepared from 10'000 ppm DMSO stock solutions. After drying the leaf discs were infested with a Thrips population of mixed ages. The samples were assessed for mortality 6 days after infestation.

[6] = system: Euschistus heros; experiment: Euschistus heros (neotropical brown stink bug), sprayed soybean leaves; details: 120 h, application rate 200 ppm, N2 nymphs, 5 days after infestation, read-out: effect in at least one of the two categories (mortality or growth inhibition)
Experimental: Soybean leaves on agar in 24-well microtiter plates were sprayed with aqueous test solutions prepared from 10'000 ppm DMSO stock solutions. After drying the leaves were infested with N2 nymphs. The samples were assessed for mortality and growth inhibition in comparison to untreated samples 5 days after infestation.
as §1

COC(=O)CN(C)S(=O)(=O)N1CC(NC(=O)c2ccc(C3=NO[C@@](c4cc(Cl)c(Cl)c(Cl)c4)(C(F)(F)F)C3)cc2C)CO1 (stereo partly drawn) [Compound A88, methyl 2-[methyl-[4-[[2-methyl-4-[(5S)-5-(3,4,5-trichlorophenyl)-5-(trifluoromethyl)-4H-isoxazol-3-yl]benzoyl]amino]isoxazolidin-2-yl]sulfonyl-amino]acetate]
≥ 80%: mortality at 200 ppm [1] | percent effect (mortality or growth inhibition) at 200 ppm [2] | percent effect (mortality or growth inhibition) at 200 ppm [3] | mortality at 200 ppm [4] | mortality at 200 ppm [5] | percent effect (mortality or growth inhibition) at 200 ppm [6]

CCOC(=O)CN(C)S(=O)(=O)N1CC(NC(=O)c2ccc(C3=NO[C@@](c4cc(Cl)c(Cl)c(Cl)c4)(C(F)(F)F)C3)cc2C)CO1 (stereo partly drawn) [Compound A89, ethyl 2-[methyl-[4-[[2-methyl-4-[(5S)-5-(3,4,5-trichlorophenyl)-5-(trifluoromethyl)-4H-isoxazol-3-yl]benzoyl]amino]isoxazolidin-2-yl]sulfonyl-amino]acetate]
≥ 80%: mortality at 200 ppm [1] | percent effect (mortality or growth inhibition) at 200 ppm [2] | percent effect (mortality or growth inhibition) at 200 ppm [3] | mortality at 200 ppm [4] | mortality at 200 ppm [5] | percent effect (mortality or growth inhibition) at 200 ppm [6]

Cc1cc(C2=NO[C@@](c3cc(Cl)c(F)c(Cl)c3)(C(F)(F)F)C2)ccc1C(=O)NC1CON(S(=O)(=O)N(C)S(C)(=O)=O)C1 (stereo partly drawn) [Compound A92]
≥ 80%: mortality at 200 ppm [1] | percent effect (mortality or growth inhibition) at 200 ppm [2] | percent effect (mortality or growth inhibition) at 200 ppm [3] | mortality at 200 ppm [4] | mortality at 200 ppm [5] | percent effect (mortality or growth inhibition) at 200 ppm [6]

C=CCN(C(=O)OC(C)(C)C)S(=O)(=O)N1CC(NC(=O)c2ccc(C3=NO[C@@](c4cc(Cl)c(F)c(Cl)c4)(C(F)(F)F)C3)cc2C)CO1 (stereo partly drawn) [Compound A94, tert-butyl N-allyl-N-[4-[[4-[(5S)-5-(3,5-dichloro-4-fluoro-phenyl)-5-(trifluoromethyl)-4H-isoxazol-3-yl]-2-methyl-benzoyl]amino]isoxazolidin-2-yl]sulfonyl-carbamate]
≥ 80%: mortality at 200 ppm [1] | percent effect (mortality or growth inhibition) at 200 ppm [2] | percent effect (mortality or growth inhibition) at 200 ppm [3] | mortality at 200 ppm [4] | mortality at 200 ppm [5] | percent effect (mortality or growth inhibition) at 200 ppm [6]

Cc1cc(C2=NO[C@@](c3cc(Cl)c(F)c(Cl)c3)(C(F)(F)F)C2)ccc1C(=O)NC1CON(S(=O)(=O)NS(C)(=O)=O)C1 (stereo partly drawn) [Compound A102, 4-[(5S)-5-(3,5-dichloro-4-fluoro-phenyl)-5-(trifluoromethyl)-4H-isoxazol-3-yl]-2-methyl-N-[2-(methylsulfonylsulfamoyl)isoxazolidin-4-yl]benzamide]
≥ 80%: mortality at 200 ppm [1] | percent effect (mortality or growth inhibition) at 200 ppm [2] | percent effect (mortality or growth inhibition) at 200 ppm [3] | mortality at 200 ppm [4] | mortality at 200 ppm [5] | percent effect (mortality or growth inhibition) at 200 ppm [6]

CN(C)S(=O)(=O)N1C[C@@H](NC(=O)c2ccc(C3=NO[C@@](c4cc(Cl)cc(Cl)c4)(C(F)(F)F)C3)cc2Cl)CO1 [Compound A110, 2-chloro-4-[(5S)-5-(3,5-dichlorophenyl)-5-(trifluoromethyl)-4H-isoxazol-3-yl]-N-[(4R)-2-(dimethylsulfamoyl)isoxazolidin-4-yl]benzamide]
≥ 80%: mortality at 200 ppm [1] | percent effect (mortality or growth inhibition) at 200 ppm [2] | percent effect (mortality or growth inhibition) at 200 ppm [3] | mortality at 200 ppm [4] | mortality at 200 ppm [5] | percent effect (mortality or growth inhibition) at 200 ppm [6]

Cc1cc(C2=NO[C@](c3cc(Cl)c(F)c(Cl)c3)(C(F)(F)F)C2)ccc1C(=O)N[C@H]1CON(S(=O)(=O)CC#N)C1 [Compound A163]
≥ 80%: mortality at 200 ppm [1] | percent effect (mortality or growth inhibition) at 200 ppm [2] | percent effect (mortality or growth inhibition) at 200 ppm [3] | mortality at 200 ppm [4] | mortality at 200 ppm [5] | percent effect (mortality or growth inhibition) at 200 ppm [6]

Cc1cc(C2=NO[C@](c3cc(Cl)cc(Cl)c3)(C(F)(F)F)C2)ccc1C(=O)N[C@H]1CON(S(=O)(=O)CC#N)C1 [Compound A165, N-[(4R)-2-(cyanomethylsulfonyl)-1,2-oxazolidin-4-yl]-4-[(5R)-5-(3,5-dichlorophenyl)-5-(trifluoromethyl)-4H-1,2-oxazol-3-yl]-2-methylbenzamide]
≥ 80%: mortality at 200 ppm [1] | percent effect (mortality or growth inhibition) at 200 ppm [2] | percent effect (mortality or growth inhibition) at 200 ppm [3] | mortality at 200 ppm [4] | mortality at 200 ppm [5] | percent effect (mortality or growth inhibition) at 200 ppm [6]

Cc1cc(C2=NO[C@](c3cc(Cl)cc(Cl)c3)(C(F)(F)F)C2)ccc1C(=O)N[C@H]1CON(S(=O)(=O)NC2(C#N)CC2)C1 [Compound A167]
≥ 80%: mortality at 200 ppm [1] | percent effect (mortality or growth inhibition) at 200 ppm [2] | percent effect (mortality or growth inhibition) at 200 ppm [3] | mortality at 200 ppm [4] | mortality at 200 ppm [5] | percent effect (mortality or growth inhibition) at 200 ppm [6]

COC(=O)CS(=O)(=O)N1C[C@@H](NC(=O)c2ccc(C3=NO[C@](c4cc(Cl)cc(Cl)c4)(C(F)(F)F)C3)cc2C)CO1 [Compound A176, methyl 2-[[(4R)-4-[[4-[(5R)-5-(3,5-dichlorophenyl)-5-(trifluoromethyl)-4H-1,2-oxazol-3-yl]-2-methylbenzoyl]amino]-1,2-oxazolidin-2-yl]sulfonyl]acetate]
≥ 80%: mortality at 200 ppm [1] | percent effect (mortality or growth inhibition) at 200 ppm [2] | percent effect (mortality or growth inhibition) at 200 ppm [3] | mortality at 200 ppm [4] | mortality at 200 ppm [5] | percent effect (mortality or growth inhibition) at 200 ppm [6]

COC(=O)CS(=O)(=O)N1C[C@H](NC(=O)c2ccc(C3=NO[C@@](c4cc(Cl)c(F)c(Cl)c4)(C(F)(F)F)C3)cc2C)CO1 [Compound A190, methyl 2-[[(4S)-4-[[4-[(5S)-5-(3,5-dichloro-4-fluorophenyl)-5-(trifluoromethyl)-4H-1,2-oxazol-3-yl]-2-methylbenzoyl]amino]-1,2-oxazolidin-2-yl]sulfonyl]acetate]
≥ 80%: mortality at 200 ppm [1] | percent effect (mortality or growth inhibition) at 200 ppm [2] | percent effect (mortality or growth inhibition) at 200 ppm [3] | mortality at 200 ppm [4] | mortality at 200 ppm [5] | percent effect (mortality or growth inhibition) at 200 ppm [6]

Cc1cc(C2=NO[C@@](c3cc(Cl)cc(Cl)c3)(C(F)(F)F)C2)ccc1C(=O)N[C@@H]1CON(S(=O)(=O)NCC(F)(F)F)C1 [Compound A194]
≥ 80%: mortality at 200 ppm [1] | percent effect (mortality or growth inhibition) at 200 ppm [2] | percent effect (mortality or growth inhibition) at 200 ppm [3] | mortality at 200 ppm [4] | mortality at 200 ppm [5] | percent effect (mortality or growth inhibition) at 200 ppm [6]

Cc1cc(C2=NO[C@@](c3cc(Cl)cc(Cl)c3)(C(F)(F)F)C2)ccc1C(=O)N[C@@H]1CON(S(=O)(=O)CC(F)(F)F)C1 [Compound A195, 4-[(5S)-5-(3,5-dichlorophenyl)-5-(trifluoromethyl)-4H-1,2-oxazol-3-yl]-2-methyl-N-[(4S)-2-(2,2,2-trifluoroethylsulfonyl)-1,2-oxazolidin-4-yl]benzamide]
≥ 80%: mortality at 200 ppm [1] | percent effect (mortality or growth inhibition) at 200 ppm [2] | percent effect (mortality or growth inhibition) at 200 ppm [3] | mortality at 200 ppm [4] | mortality at 200 ppm [5] | percent effect (mortality or growth inhibition) at 200 ppm [6]

Cc1cc(C2=NO[C@](c3cc(Cl)c(F)c(Cl)c3)(C(F)(F)F)C2)ccc1C(=O)N[C@H]1CON(S(=O)(=O)CCC(F)(F)F)C1 [Compound A199, 4-[(5R)-5-(3,5-dichloro-4-fluorophenyl)-5-(trifluoromethyl)-4H-1,2-oxazol-3-yl]-2-methyl-N-[(4R)-2-(3,3,3-trifluoropropylsulfonyl)-1,2-oxazolidin-4-yl]benzamide]
≥ 80%: mortality at 200 ppm [1] | percent effect (mortality or growth inhibition) at 200 ppm [2] | percent effect (mortality or growth inhibition) at 200 ppm [3] | mortality at 200 ppm [4] | mortality at 200 ppm [5] | percent effect (mortality or growth inhibition) at 200 ppm [6]
